Measured values: patent US8106055B2, “Substituted amide compounds” (Gruenenthal GmbH, priority 2007, dated 2012)

target: T1, human μ opiate receptor (Homo sapiens, UniProt P35372); assay: Affinity for the human μ opiate receptor ([3H]-naloxone displacement, CHO-K1 receptor membrane preparation, SPA); assay type: binding; details: test concentration of 1 μM; read-out: μ (binding on the μ opioid receptor, % inhibition)
T1 construct: purchased PerkinElmer Life Sciences, Zaventem, Belgium RB-HOM; host or cells: CHO-K1 cells (membrane preparation)
T1 sequence (P35372 whole entry): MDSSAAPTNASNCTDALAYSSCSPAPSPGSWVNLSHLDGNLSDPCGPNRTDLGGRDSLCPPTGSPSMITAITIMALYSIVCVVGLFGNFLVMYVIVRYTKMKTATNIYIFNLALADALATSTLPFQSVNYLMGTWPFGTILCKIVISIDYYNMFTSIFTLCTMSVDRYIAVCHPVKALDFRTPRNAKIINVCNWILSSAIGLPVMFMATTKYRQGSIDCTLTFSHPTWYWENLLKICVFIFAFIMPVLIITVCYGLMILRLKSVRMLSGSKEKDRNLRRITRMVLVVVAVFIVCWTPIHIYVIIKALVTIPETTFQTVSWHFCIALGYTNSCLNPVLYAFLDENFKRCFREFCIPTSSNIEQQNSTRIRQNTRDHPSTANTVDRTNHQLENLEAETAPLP
How it was run: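 At 1 μmol/l, compounds were scored for % displacement of 1 nmol/l [3H]-naloxone from CHO-K1-expressed human μ opiate receptor in a homogeneous SPA format (90 min, room temperature).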

Row | Compound | inhibition at 1 µM [%]
1 | CN(C)C(c1cccs1)C1CCC(CCNC(=O)COCCN(C)S(=O)(=O)c2ccc(Cl)cc2Cl)CC1 (stereo not drawn) [Example 9, 2-(2-(2,4-dichloro-N-methylphenylsulfonamido)ethoxy)-N-(2-(4-((dimethylamino) (thiophen-2-yl)methyl)cyclohexyl)ethyl)acetamide] | 98
2 | CN(C)C(c1cccs1)C1CCC(NC(=O)COCCN(C)S(=O)(=O)c2ccc(F)cc2)CC1 (stereo not drawn) [Example 10, N-(4-((dimethylamino)(thiophen-2-yl)methyl)cyclohexyl)-2-(2-(4-fluoro-N-methylphenylsulfonamido)ethoxy)acetamide] | 98
3 | CN(C)C(c1cccs1)C1CCC(NC(=O)COC2CCN(S(=O)(=O)c3cccc(C(F)(F)F)c3)C2)CC1 (stereo not drawn) [Example 11, N-(4-((dimethylamino)(thiophen-2-yl)methyl)cyclohexyl)-2-(1-(3-(trifluoromethyl)phenylsulfonyl)pyrrolidin-3-yloxy)acetamide] | 98
4 | Cc1cc(C)c(S(=O)(=O)N2CCC(OCC(=O)NC3CCC(C(c4cccs4)N(C)C)CC3)C2)c(C)c1 (stereo not drawn) [Example 12, N-(4-((dimethylamino)(thiophen-2-yl)methyl)cyclohexyl)-2-(1-(mesitylsulfonyl)pyrrolidin-3-yloxy)acetamide] | 98
5 | CN(C)C(c1ccccc1)C1CCC(CNC(=O)COCCN(C)S(=O)(=O)c2c(Cl)cccc2Cl)CC1 (stereo not drawn) [Example 13, 2-(2-(2,6-dichloro-N-methylphenylsulfonamido)ethoxy)-N-((4-((dimethylamino)(phenyl)methyl)cyclohexyl)methyl)acetamide] | 98
6 | CN(C)C(c1ccccc1)C1CCC(CNC(=O)COCCN(C)S(=O)(=O)c2c(Cl)cc(Cl)cc2Cl)CC1 (stereo not drawn) [Example 14, N-((4-((dimethylamino)(phenyl)methyl)cyclohexyl)methyl)-2-(2-(2,4,6-trichloro-N-methylphenylsulfonamido)ethoxy)acetamide] | 98
7 | CN(C)C(c1ccccc1)C1CCC(CNC(=O)COCCN(Cc2ccccc2)S(=O)(=O)c2ccccc2)CC1 (stereo not drawn) [Example 15, 2-(2-(N-benzylphenylsulfonamido)ethoxy)-N-((4-((dimethylamino)(phenyl)methyl)cyclohexyl)methyl)acetamide] | 98
8 | CCN(CCOCC(=O)NCC1CCC(C(c2cccs2)N(C)C)CC1)S(=O)(=O)c1c(C)cc(OC)c(C)c1C (stereo not drawn) [Example 16, N-((4-((dimethylamino)(thiophen-2-yl)methyl)cyclohexyl)methyl)-2-(2-(N-ethyl-4-methoxy-2,3,6-trimethylphenylsulfonamido)ethoxy)acetamide] | 98
9 | CN(C)C(c1ccccc1)C1CCC(CNC(=O)COCC2CCCCN2S(=O)(=O)c2ccc(Cl)c(Cl)c2)CC1 (stereo not drawn) [Example 17, 2-((1-(3,4-dichlorophenylsulfonyl)piperidin-2-yl)methoxy)-N-((4-((dimethylamino)(phenyl)methyl)cyclohexyl)methyl)acetamide] | 98
10 | CN(C)C(c1ccccc1)C1CCC(CNC(=O)COCC2CCCN2S(=O)(=O)c2ccc(Cl)c(Cl)c2)CC1 (stereo not drawn) [Example 18, 2-((1-(3,4-dichlorophenylsulfonyl)pyrrolidin-2-yl)methoxy)-N-((4-((dimethylamino)(phenyl)methyl)cyclohexyl)methyl)acetamide] | 98
11 | COc1ccc(S(=O)(=O)N2Cc3ccccc3CC2COCC(=O)NCC2CCC(C(c3ccccc3)N(C)C)CC2)cc1 (stereo not drawn) [Example 19, N-((4-((dimethylamino)(phenyl)methyl)cyclohexyl)methyl)-2-((2-(4-methoxyphenylsulfonyl)-1,2,3,4-tetrahydroisoquinolin-3-yl)methoxy)acetamide] | 98
12 | COc1cc(C)c(S(=O)(=O)N2CCN(CCOCC(=O)NC3CCC(C(c4ccccc4)N(C)C)CC3)CC2)c(C)c1C (stereo not drawn) [Example 20, N-(4-((dimethylamino)(phenyl)methyl)cyclohexyl)-2-(2-(4-(4-methoxy-2,3,6-trimethylphenylsulfonyl)piperazin-1-yl)ethoxy)acetamide] | 97
